Read-outs that look alike come from different tables or passages of the source.
Columns and labels:
Type in all cases: biochemical
[1] = target: T1, Recombinant Human Anaplastic Lymphoma Kinase (Homo sapiens, UniProt Q9UM73); experiment: ALK HTRF kinase assay
T1 construct: purchased Invitrogen, Carlsbad, Calif
Source text: Materials: Recombinant Human Anaplastic Lymphoma Kinase was purchased from Invitrogen, Carlsbad, Calif. Peptide substrate (Biotin-[…]-amide) was custom synthesized at EZBiolab, Westfield, Ind. Streptavidin conjugated SureLight-Allophycocyania and LANCE Eu-W1024 labeled anti-phosphotyrosine antibody were from Perkin-Elmer, Boston, Mass. Microplates were from Corning Inc., Acton, Mass. All other reagents were from Sigma, St. Louis, Mo.
Plates were read in Fusion α-FP instrument (Perkin-Elmer). […] Signal=Bottom+(Top−Bottom)/(1+10^((Log(IC50)−Log [I])*Hill Slope) Bottom and Top refer to the post and pre-transition baselines, respectively.

[2] = target: T2, human JAK1 (a.a. 837-1142) (Homo sapiens, UniProt P23458); experiment: In vitro JAK kinase assay (HTRF, phosphorylation of a biotinylated peptide), JAK1; details: read-out: JAK1 IC50
T2 construct: human JAK1 (a.a. 837-1142); His tag (N); made in house; host or cells: insect cells (baculovirus)
T2 sequence (P23458 849-1154): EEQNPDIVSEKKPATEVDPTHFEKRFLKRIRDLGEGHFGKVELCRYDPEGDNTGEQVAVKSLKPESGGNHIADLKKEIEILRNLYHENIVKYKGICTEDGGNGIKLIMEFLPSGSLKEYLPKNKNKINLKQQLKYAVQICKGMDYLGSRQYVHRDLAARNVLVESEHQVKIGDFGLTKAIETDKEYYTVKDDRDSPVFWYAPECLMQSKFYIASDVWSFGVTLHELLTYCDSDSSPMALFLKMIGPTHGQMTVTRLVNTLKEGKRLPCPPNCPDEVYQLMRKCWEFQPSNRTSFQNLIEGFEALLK
Procedure, shortened: (§1)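 Phosphorylation of a biotinylated peptide by the JAK kinase domain, detected by HTRF with Eu-Py20 and SA-APC. ATP was 90 μM for JAK1, 30 μM for JAK2 and 3 μM for JAK3. Reactions ran 1 h at room temperature and were stopped with EDTA, followed by 40 min antibody binding.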

[3] = target: T3, human JAK2 (a.a. 828-1132) (Homo sapiens, UniProt O60674); experiment: In vitro JAK kinase assay (HTRF, phosphorylation of a biotinylated peptide), JAK2
T3 construct: JAK2 (a.a. 828-1132); His tag (N); made in house; host or cells: insect cells (baculovirus)
T3 sequence (O60674 828-1132): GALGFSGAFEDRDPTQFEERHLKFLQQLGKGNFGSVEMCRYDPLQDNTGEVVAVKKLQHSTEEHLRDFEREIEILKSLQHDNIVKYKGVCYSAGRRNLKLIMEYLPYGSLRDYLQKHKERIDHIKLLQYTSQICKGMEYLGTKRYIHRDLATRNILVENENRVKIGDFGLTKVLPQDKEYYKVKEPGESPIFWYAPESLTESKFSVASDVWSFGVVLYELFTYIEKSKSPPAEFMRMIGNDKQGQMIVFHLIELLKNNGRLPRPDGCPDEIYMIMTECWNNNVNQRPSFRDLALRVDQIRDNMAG
Procedure, shortened: as §1

[4] = compound at 500 nM or 1 mM, 90 μM ATP
[5] = method AA1 (90 μM ATP) or AA2 (1000 μM ATP), not stated per value
[6] = method AA1 (30 μM ATP) or AA2 (1000 μM ATP), not stated per value

T1 sequence (Q9UM73 19-1620): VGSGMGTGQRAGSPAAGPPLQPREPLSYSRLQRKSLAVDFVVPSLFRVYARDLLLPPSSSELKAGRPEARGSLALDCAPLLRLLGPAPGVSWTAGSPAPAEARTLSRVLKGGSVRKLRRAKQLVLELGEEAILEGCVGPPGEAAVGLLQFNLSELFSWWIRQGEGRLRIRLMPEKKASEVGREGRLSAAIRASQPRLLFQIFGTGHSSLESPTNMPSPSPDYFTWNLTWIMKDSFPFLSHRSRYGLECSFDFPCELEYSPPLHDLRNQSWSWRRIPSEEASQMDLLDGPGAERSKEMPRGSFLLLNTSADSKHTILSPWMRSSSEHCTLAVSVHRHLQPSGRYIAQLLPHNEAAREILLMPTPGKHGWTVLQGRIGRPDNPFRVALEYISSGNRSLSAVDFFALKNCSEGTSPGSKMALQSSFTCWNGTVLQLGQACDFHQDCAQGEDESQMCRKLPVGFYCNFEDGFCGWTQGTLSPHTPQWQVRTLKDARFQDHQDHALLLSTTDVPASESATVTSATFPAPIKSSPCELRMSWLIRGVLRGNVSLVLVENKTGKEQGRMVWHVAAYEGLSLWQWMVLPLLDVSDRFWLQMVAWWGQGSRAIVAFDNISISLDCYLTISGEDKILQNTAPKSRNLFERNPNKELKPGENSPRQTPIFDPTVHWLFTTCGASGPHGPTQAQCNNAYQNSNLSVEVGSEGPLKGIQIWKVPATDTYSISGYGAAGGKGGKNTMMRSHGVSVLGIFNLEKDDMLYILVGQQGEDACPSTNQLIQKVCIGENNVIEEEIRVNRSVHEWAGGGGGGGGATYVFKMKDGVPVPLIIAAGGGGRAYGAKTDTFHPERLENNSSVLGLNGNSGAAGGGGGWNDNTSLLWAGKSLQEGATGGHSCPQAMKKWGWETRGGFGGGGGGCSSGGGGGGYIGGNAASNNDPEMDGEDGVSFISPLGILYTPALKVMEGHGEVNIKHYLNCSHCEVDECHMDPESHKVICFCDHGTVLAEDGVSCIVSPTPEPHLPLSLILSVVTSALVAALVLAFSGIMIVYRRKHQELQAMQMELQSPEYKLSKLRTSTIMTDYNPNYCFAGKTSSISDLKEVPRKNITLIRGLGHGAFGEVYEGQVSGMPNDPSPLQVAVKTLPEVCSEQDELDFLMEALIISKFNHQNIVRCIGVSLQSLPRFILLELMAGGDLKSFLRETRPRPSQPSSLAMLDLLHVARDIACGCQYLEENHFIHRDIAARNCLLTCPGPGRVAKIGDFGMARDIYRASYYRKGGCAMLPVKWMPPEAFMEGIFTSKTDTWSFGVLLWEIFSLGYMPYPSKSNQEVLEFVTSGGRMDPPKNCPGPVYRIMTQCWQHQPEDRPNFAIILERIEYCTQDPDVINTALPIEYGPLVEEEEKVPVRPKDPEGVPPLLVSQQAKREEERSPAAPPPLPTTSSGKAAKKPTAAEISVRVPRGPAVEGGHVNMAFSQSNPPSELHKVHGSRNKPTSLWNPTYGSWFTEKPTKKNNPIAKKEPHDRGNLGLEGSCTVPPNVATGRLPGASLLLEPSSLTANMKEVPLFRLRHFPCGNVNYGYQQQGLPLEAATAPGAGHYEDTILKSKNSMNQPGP

Row | ALK % of inhibition at a concentration of 500 nM or 1 mM [1, 4] [%] | IC50 [2, 5] [nM] | IC50 [3, 6] [nM] | ALK % of inhibition at a concentration of 500 nM or 1 mM ([1]; compound at a concentration of 500 nM or 1 mM (not specified), cells shown as percentage) [%] | IC50 ([2]; Table B1) [nM] | IC50 ([3]; Table B1) [nM] | SMILES
1 | 24 | 3.6 | 87 | – | – | – | O=C(CC1CCN(c2nccs2)CC1)Nc1ccc2cc1CCc1cncc(c1)Nc1ncc(Cl)c(n1)N2 [Example A159, N-[6-Chloro-2,4,8,18,22-pentaazatetracyclo[14.3.1.1(3,7).1(9,13)]docosa-1(20),3(22),4,6,9(21),10,12,16,18-nonaen-12-yl]-2-[1-(1,3-thiazol-2-yl)piperidin-4-yl]acetamide tris(trifluoroacetate)]
2 | – | – | – | 0 | > 1000 | > 1000 | NC1CCN(c2ccnc(Nc3ccc4cc3CCc3cncc(c3)Nc3ncc(Cl)c(n3)N4)n2)CC1 [Example B282, N-[4-(4-Aminopiperidin-1-yl)pyrimidin-2-yl]-6-chloro-2,4,8,18,22-pentaazatetracyclo[14.3.1.1(3,7).1(9,13)]docosa-1(20),3(22),4,6,9(21),10,12,16,18-nonaen-12-amine tetrakis(trifluoroacetate)]
3 | 23 | 64 | > 1000 | – | – | – | Cc1nocc1C(=O)N1CCC(CC(=O)Nc2ccc3cc2CCc2cncc(c2)Nc2ncc(Cl)c(n2)N3)CC1 [Example A165, N-[6-Chloro-2,4,8,18,22-pentaazatetracyclo[14.3.1.1(3,7).1(9,13)]docosa-1(20),3(22),4,6,9(21),10,12,16,18-nonaen-12-yl]-2-{1-[(3-methylisoxazol-4-yl)carbonyl]piperidin-4-yl}acetamide bis(trifluoroacetate)]
4 | 32 | 6.5 | 300 | – | – | – | Cc1nonc1C(=O)N1CCC(CC(=O)Nc2ccc3cc2CCc2cncc(c2)Nc2ncc(Cl)c(n2)N3)CC1 [Example A166, N-[6-Chloro-2,4,8,18,22-pentaazatetracyclo[14.3.1.1(3,7).1(9,13)]docosa-1(20),3(22),4,6,9(21),10,12,16,18-nonaen-12-yl]-2-{1-[(4-methyl-1,2,5-oxadiazol-3-yl)carbonyl]piperidin-4-yl}acetamide bis(trifluoroacetate)]

Continued, compound first:

Row | SMILES | ALK % of inhibition at a concentration of 500 nM or 1 mM [1, 4] [%] | IC50 [2, 5] [nM] | IC50 [3, 6] [nM] | ALK % of inhibition at a concentration of 500 nM or 1 mM ([1]; compound at a concentration of 500 nM or 1 mM (not specified), cells shown as percentage) [%] | IC50 ([2]; Table B1) [nM] | IC50 ([3]; Table B1) [nM]
5 | Cc1ccc(C(=O)N2CCC(CC(=O)Nc3ccc4cc3CCc3cncc(c3)Nc3ncc(Cl)c(n3)N4)CC2)o1 [Example A162, N-[6-Chloro-2,4,8,18,22-pentaazatetracyclo[14.3.1.1(3,7).1(9,13)]docosa-1(20),3(22),4,6,9(21),10,12,16,18-nonaen-12-yl]-2-[1-(5-methyl-2-furoyl)piperidin-4-yl]acetamide bis(trifluoroacetate)] | 33 | 8.2 | 289 | – | – | –
6 | Nc1nonc1C(=O)N1CCC(CC(=O)Nc2ccc3cc2CCc2cncc(c2)Nc2ncc(Cl)c(n2)N3)CC1 [Example A167, 2-{1-[(4-Amino-1,2,5-oxadiazol-3-yl)carbonyl]piperidin-4-yl}-N-[6-chloro-2,4,8,18,22-pentaazatetracyclo[14.3.1.1(3,7).1(9,13)]docosa-1(20),3(22),4,6,9(21),10,12,16,18-nonaen-12-yl]acetamide tris(trifluoroacetate)] | 33 | 0.6 | 59 | – | – | –
7 | Cc1occc1C(=O)N1CCC(CC(=O)Nc2ccc3cc2CCc2cncc(c2)Nc2ncc(Cl)c(n2)N3)CC1 [Example A160, N-[6-Chloro-2,4,8,18,22-pentaazatetracyclo[14.3.1.1(3,7).1(9,13)]docosa-1(20),3(22),4,6,9(21),10,12,16,18-nonaen-12-yl]-2-[1-(2-methyl-3-furoyl)piperidin-4-yl]acetamide bis(trifluoroacetate)] | 19 | 5 | 271 | – | – | –
